Holding throughout (experiment): NCI anticancer screen, dose series, 48 h
In assay [1] the test system is HCT-15 colon.
The subject of assay [2] is SW-620 colon.
Assay [3] concerns HL-60(TB) leukemia.
Assay [4] deals with NCI-H23 lung.
Assay [5] has as its system SK-MEL-28 melanoma.
Assay [6] relates to U251 CNS.
Assay [7] has as its system LOX IMVI melanoma.
Assay [8] relates to BT-549 breast.
Assay [9] concerns MDA-MB-231 breast.
Assay [10] relates to SK-MEL-5 melanoma.
For assay [11], the system named is HOP-62 NSCLC.
The test system of assay [12] is MCF7 breast.
In assay [13] the test system is DU-145 prostate.
Assay [14] concerns MDA-N.
The test system of assay [15] is ACHN renal.
Assay [16] deals with M14 melanoma.
In assay [17] the test system is UO-31 renal.
The subject of assay [18] is NCI-H522 lung.
Assay [19] concerns K-562 leukemia.
The test system of assay [20] is HOP-92 NSCLC.

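Results reflect a 48-hour exposure of cells in 96-well plates to compound at five concentrations. TGI: total growth inhibition.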

Take `S=c1sc2c(s1)SCCCCSCCCCSc1sc(=S)sc1SCCCCSCCCCS2`: the TGI in [1], in assay [2], in assay [3], in [4], in [5] and in assay [6] was over 100 µM each time. Besides, the TGI in assay [7], in [8], in [9], in [10], in assay [11] and in [12] was over 100 µM in each case. Moreover, the TGI in [13], in [14], in [15], in [16], in assay [17] and in assay [18] was over 100 µM each time. The TGI in assay [19] was over 100 µM.

`COc1ccc2oc(=N)c(C(=O)NCc3ccccc3)cc2c1`: the TGI in assay [1] was over 100 µM; in assay [2], 55.6 µM; in assay [3] it was over 100 µM; in [4], 43.1 µM; in assay [5], over 100 µM; in assay [6], 37.2 µM. In addition, the TGI in assay [7] was over 100 µM; in assay [8], 45.4 µM; in [9] it was 58.1 µM; in assay [10] it was over 100 µM; in assay [11] it was 55.8 µM; in assay [12], 69.1 µM. The TGI in [13] is 88.8 µM; in assay [14], 59.9 µM; in assay [15], 73.9 µM; in assay [16], over 100 µM; in assay [17] it was over 100 µM; in assay [18], 43.5 µM. This compound also had a TGI in [19] of 86.8 µM.

For the compound `CCC1C(C#N)=C(N)OC2=C1C(=O)CC(C)(C)C2` (centres undefined), the TGI in [1], in assay [2], in assay [20], in [3], in assay [4] and in [5] was over 100 µM in each case. Besides, the TGI in assay [6], in assay [7], in assay [8], in assay [9], in assay [10] and in [11] was over 100 µM each time. For the same compound, the TGI in [12], in assay [13], in [14], in assay [15], in assay [16] and in assay [18] was over 100 µM in each case.

In the case of `CC(=O)N1C(c2[nH]c3ccccc3c2-c2ccccc2)CCN1c1ccccc1` (centres undefined), the TGI in assay [1], in [2], in assay [3], in [4], in assay [5] and in [7] was over 10 µM in each case. The TGI in assay [8], in [9], in assay [10], in assay [11], in assay [12] and in assay [13] was over 10 µM in each case. For the same compound, the TGI in [14], in assay [15], in assay [16], in assay [17], in assay [18] and in [19] was over 10 µM throughout.

For the compound `CCOC(=O)N/N=C(/OCC)c1ccccc1`, the TGI in assay [1], in [2], in assay [20], in assay [3], in [4] and in assay [5] was over 100 µM throughout. Moreover, the TGI in [6], in [7], in assay [8], in assay [9], in assay [10] and in [11] was over 100 µM throughout. Further, the TGI in [12], in [13], in assay [14], in assay [15], in assay [17] and in assay [18] was over 100 µM each time. The compound also gave a TGI in [19] of over 100 µM.

In the case of `CC(=O)N1C(Nc2ccccn2)CCN1c1ccccc1` (centres undefined), the TGI in assay [1], in assay [2], in assay [20], in assay [3], in assay [4] and in assay [5] was over 10 µM each time. Moreover, the TGI in [7], in [8], in [9], in assay [10], in assay [11] and in assay [12] was over 10 µM each time. Moreover, the TGI in assay [13], in assay [14], in [15], in [16], in [17] and in assay [18] was over 10 µM in each case. Moreover, in [19], the TGI is over 10 µM.

With `CCNCCNc1c2ccccc2nc2ccccc12`, the TGI in assay [1] was 5.83 µM; in assay [2], 2.84 µM; in [3], over 100 µM; in assay [4], 3.36 µM; in [7], 2.95 µM; in assay [8], 10.2 µM. Moreover, the TGI in assay [9] amounted to 3.02 µM; in assay [10], 7.41 µM; in assay [11] it was 4.21 µM; in [12], 3.4 µM; in assay [13] it was 7.42 µM; in [14], 2.81 µM. Moreover, the TGI in [15] worked out at 1.37 µM; in assay [16] it was 3.05 µM; in [17], 5.02 µM; in assay [18] it was 4.69 µM; in [19] it was 5.66 µM.

Source of the values: PubChem BioAssay (NCI).
